Experimental findings from paper PMC8145704, “Conformational Plasticity of Hepatitis B Core Protein Spikes Promotes Peptide Binding Independent of the Secretion Phenotype” (Microorganisms, 2021) are described below.

The test system of one series is WT-HBc capsids. As to conditions: GRMKG added at 10-fold molar excess; SLLGRM sample taken at the end of the ITC experiment (more than 95% of binding sites occupied).
Series [1] deals with T1, WT-HBc capsids (hepatitis B core protein) (Hepatitis B virus genotype D subtype ayw, UniProt P03146).
T1 construct: these predictions are also valid for full-length variants with randomly packaged host–RNA; made in house; host or cells: E. coli BL21 (DE3) Star
Format: binding, Hepatitis B virus (genotype D; strain ayw). As to conditions: for KD: N-terminally unmodified, terminally amidated peptides, dnb = did not bind HBc, SLLGRM fitted with stoichiometry fixed to 0.25.

The conditions of series [2]: for solubility (soluble up to): no buffer stated at this place, peptides were dissolved in ITC dialysis buffer, pH 7.5.
A further series addresses P5T-HBc capsids (Hepatitis B virus genotype D subtype ayw, UniProt P03146, P5T). As to the kind of experiment: Isothermal titration calorimetry (ITC) of peptide binding to P5T-HBc capsids. Details: species or system Hepatitis B virus (genotype D; strain ayw). As to conditions: 20 °C, ITC buffer 2, mean ± SD of 6 repeats. For orientation: ITC needs no label: the signal is the heat of the interaction.

The next series addresses L60V-HBc capsids (Hepatitis B virus genotype D subtype ayw, UniProt P03146, L60V). The series can be described thus: Isothermal titration calorimetry (ITC) of peptide binding to L60V-HBc capsids. Details: species or system Hepatitis B virus (genotype D; strain ayw). As to conditions: 20 °C, ITC buffer 2, stoichiometry fixed to 0.5, mean ± SD of 3 repeats.
The target of a further series is F97L-HBc capsids (Hepatitis B virus genotype D subtype ayw, UniProt P03146, F97L). As to the kind of experiment: Isothermal titration calorimetry (ITC) of peptide binding to F97L-HBc capsids. Details: species or system Hepatitis B virus (genotype D; strain ayw). As to conditions: 20 °C, ITC buffer 2, mean ± SD of 5 repeats.
Where [3] appears, read: ITC, 20 °C, ITC buffer 2, single repeat, ± fit error.
The mark [4] stands for this setting: ITC, 37 °C, ITC buffer 1, single repeat, ± fit error.
Setting [5] is: ITC, 20 °C, ITC buffer 2, mean ± SD of 6 repeats.

Entries after “also recorded” stand apart in the source; their conditions may differ. Like-named read-outs stand apart in the source and are kept apart here. Ends that are not written are not given here.

Regarding SLLGRM-NH2 [SLLGRM], in the series with WT-HBc capsids, the “association of peptide with capsids in the cryo-EM map” value is recorded as “only the CD spikes bound”. In addition, the “∆ST” value in series [1] (ITC, 20 °C, ITC buffer 2, stoichiometry fixed to 0.25, single repeat) is -3.2 kcal/mol. Also, the “∆H” value in series [1] (ITC, 20 °C, ITC buffer 2, stoichiometry fixed to 0.25, single repeat, ± fit error) is -8.3 ± 0.2 kcal/mol.

For the compound SLKGRM, the KD entry in series [1] (setting [3]) is “no binding detected and dnb”.

Turning to `CSCC[C@H](NC(=O)[C@H](CCCNC(=N)N)NC(=O)CNC(=O)[C@H](CC(C)C)NC(=O)[C@H](CC(C)C)NC(=O)[C@H](CO)NC(=O)[C@H](CCCNC(=N)N)NC(=O)[C@H](Cc1c[nH]cn1)NC(=O)[C@@H](N)CCSC)C(=O)N[C@@H](CCCCN)C(=O)NCC(=O)N[C@@H](C)C(N)=O` [P1], in series [2], the “solubility (soluble up to)” value is “up to 8 mM”. Also, the “∆ST” value in series [1] (ITC, 37 °C, ITC buffer 1, single repeat) is -2.5 kcal/mol. Moreover, in series [1] (setting [4]), the “Ratio Peptide/HBc” value is 0.45 ± 0.02 and the “∆H” value was -9.0 ± 0.6 kcal/mol. In addition, the “aggregation of HBc capsids caused by the peptide” value in series [1] (in words, endothermic contribution at higher P1 concentrations in ITC (37 °C, ITC buffer 1) attributed to aggregation) is “aggregation of P1 and capsids; also recorded: causes aggregation of HBc capsids”.

With SLLGEM, the KD entry in series [1] (setting [3]) is “no binding detected and dnb”.

As for GRMKG, the “association of peptide with capsids in the cryo-EM map” value in the series with WT-HBc capsids was “no association”. Also, in series [1] (setting [3]), the KD entry is “no measurable affinity and dnb”.

In the case of `CSCC[C@H](NC(=O)[C@H](CCCNC(=N)N)NC(=O)CNC(=O)[C@H](CC(C)C)NC(=O)[C@H](CC(C)C)NC(=O)[C@H](CO)NC(=O)CN)C(=O)N[C@@H](CCCCN)C(=O)NCC(=O)N[C@@H](C)C(N)=O` [P2], the “∆H” value is -7.7 ± 0.8 kcal/mol at P5T-HBc capsids, -6.6 ± 1.2 kcal/mol at L60V-HBc capsids, -14.4 ± 1.6 kcal/mol in series [1] (setting [5]) and -9.9 ± 1.0 kcal/mol on F97L-HBc capsids. For the same compound, the “∆ST” value at P5T-HBc capsids is -2.1 ± 0.9 kcal/mol; at L60V-HBc capsids, -1.4 ± 1.3 kcal/mol; in series [1] (setting [5]), -8.8 ± 1.6 kcal/mol; at F97L-HBc capsids, -4.7 ± 0.9 kcal/mol. Further, the “solubility compared with the other peptide, in words” value in series [2] (P2 compared with the longer P1) is “better soluble”. The “solubility (soluble up to)” value in series [2] is recorded as “up to 8 mM”.
